For the experiment, the target named is T1, human MRGPRX2 (Homo sapiens, UniProt Q96LB1).
T1 sequence (Q96LB1 1-330): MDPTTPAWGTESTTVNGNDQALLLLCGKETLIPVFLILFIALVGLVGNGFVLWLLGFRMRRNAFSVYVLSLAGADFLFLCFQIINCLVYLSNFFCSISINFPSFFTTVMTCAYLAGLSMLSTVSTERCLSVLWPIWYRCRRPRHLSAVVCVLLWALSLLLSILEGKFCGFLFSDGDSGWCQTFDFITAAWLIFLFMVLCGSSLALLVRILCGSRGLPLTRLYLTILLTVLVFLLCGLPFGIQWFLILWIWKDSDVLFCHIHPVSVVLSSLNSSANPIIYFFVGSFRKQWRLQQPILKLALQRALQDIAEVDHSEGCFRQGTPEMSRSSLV
The experiment can be described thus: Ca2+ mobilization assay (FLIPR TETRA): inhibition of Cortistatin-14 mediated MRGPRX2 activation. Background: Calcium flux is commonly read through the fluorescence of an indicator in the cells.

The IC50 is the concentration that inhibits the measured activity by half. The compound `C[C@@H](C(=O)Nc1ccc(Oc2ccc(F)cc2CO)cn1)N1CCC(F)(F)[C@@H](c2cc[n+]([O-])cc2)C1` [Example 273, 4-((S)-4,4-difluoro-1-((S)-1-((5-(4-fluoro-2-(hydroxymethyl)phenoxy)pyridin-2-yl)amino)-1-oxopropan-2-yl)piperidin-3-yl)pyridine 1-oxide] displayed an IC50 of 10 to 100 nM.
With `CC(C(=O)Nc1ccc(Cc2ncco2)cn1)N1CCC(F)(F)[C@@H](c2ccc(=O)[nH]c2)C1` (stereo partly drawn) [Example 53, 2-((S)-4,4-difluoro-3-(6-oxo-1,6-dihydropyridin-3-yl)piperidin-1-yl)-N-(5-(oxazol-2-ylmethy)pyridin-2-yl)propanamide], the IC50 was 3160 to 31600 nM.
For the compound `CC(C(=O)Nc1ncc(Oc2ccc(F)cc2)cc1F)N1CCC(F)(F)[C@@H](c2ccc(=O)[nH]c2)C1` (stereo partly drawn) [Example 86, 2-((S)-4,4-difluoro-3-(6-oxo-1,6-dihydropyridin-3-yl)piperidin-1-yl)-N-(3-fluoro-5-(4-fluorophenoxy)pyridin-2-yl)propanamide], the IC50 was 10 to 100 nM.
Consider `C[C@@H](C(=O)Nc1ccc(F)cn1)N1CCC(F)(F)[C@@H](c2c[nH]c(=O)c(N)n2)C1` [Example 106, (S)-2-((R)-3-(6-amino-5-oxo-4,5-dihydropyrazin-2-yl)-4,4-difluoropiperidin-l-y1)-N-(5-fluoropyridin-2-yl) propanamide], for which the IC50 lay in the range of 10 to 100 nM.
For `CC(C(=O)Nc1ccc(Oc2ccc[nH]c2=O)cn1)N1CCC(F)(F)[C@@H](c2ccc(=O)[nH]c2)C1` (stereo partly drawn) [Example 72, 2-((S)-4,4-difluoro-3-(6-oxo-1,6-dihydropyridin-3-yl)piperidin-1-yl)-N-(5-((2-oxo-1,2-dihydropyridin-3-yl)oxy)pyridin-2-yl)propanamide] the value was 10 to 100 nM.
To `C[C@@H](C(=O)Nc1ccc(OCC2CC2)nn1)N1CCC(F)(F)C(c2c[nH]c(=O)c(Br)c2)C1` (stereo partly drawn) [Example 221, (2S)-2-(3-(5-bromo-6-oxo-1,6-dihydropyridin-3-yl)-4,4-difluoropiperidin-1-yl)-N-(6-(cyclopropylmethoxy)pyridazin-3-yl)propanamide] belongs 10 to 100 nM.
For `C[C@@H](C(=O)Nc1ccc(F)cn1)N1CCC(F)(F)[C@@H](c2cc[n+]([O-])cc2)C1` [Example 113, 4-((S)-4,4-difluoro-1-((S)-1-((5-fluoropyridin-2-yl)amino)-1-oxopropan-2-yl)piperidin-3-yl)pyridine 1-oxide] the value was 100 to 3160 nM; for `Cc1cc([C@@H]2CCCN([C@@H](C)C(=O)Nc3ccc(Cl)cn3)C2)c[nH]c1=O` (single isomer, unassigned) [Example 184], 3160 to 31600 nM; for `C[C@H]1C[C@@H](c2ccc(=O)[nH]c2)CN([C@@H](C)C(=O)Nc2ccc(Cl)cn2)C1` [Example 172], 100 to 3160 nM.
Compound `C[C@@H](C(=O)Nc1ccc(C(=O)OC2CCC2)cn1)N1CCC(F)(F)[C@@H](c2ccc(=O)[nH]c2)C1` [Example 37, cyclobutyl 6-((S)-2-((S)-4,4-difluoro-3-(6-oxo-1,6-dihydropyridin-3-yl)piperidin-1-yl)propanamido) nicotinate] showed a concentration for half-maximal inhibition (IC50) of 100 to 3160 nM.
To `C[C@@H](C(=O)Nc1cnc(Oc2ccc(F)cc2F)cn1)N1CCC[C@@H](c2cc[n+]([O-])cc2)C1` [Example 181, 4-((S)-1-((S)-1-((5-(2,4-difluorophenoxy)pyrazin-2-yl)amino)-1-oxopropan-2-yl)piperidin-3-yl)pyridine 1-oxide] belongs 10 to 100 nM; to `CC(C(=O)Nc1ccc(C2CCCCC2)cn1)N1CCC(F)(F)[C@@H](c2ccc(=O)[nH]c2)C1` (stereo partly drawn) [Example 42, N-(5-cyclohexyl-pyridin-2-yl)-2-((S)-4,4-difluoro-3-(6-oxo-1,6-dihydropyridin-3-yl)piperidin-1-yl)propanamide], 100 to 3160 nM; to `C[C@@H](C(=O)Nc1ccc(Oc2ccc(F)cc2F)cn1)N1CCC(F)(F)[C@@H](c2cc[n+]([O-])c(CO)c2)C1` [Example 255], ≤ 10 nM.
To `C[C@@H](C(=O)Nc1ccc(Oc2ccc(F)cc2)cn1)N1CCC(F)(F)C(c2c[nH]c(=O)c(C(O)C(F)(F)F)c2)C1` (stereo partly drawn) [Example 211, (2S)-2-(4,4-difluoro-3-(6-oxo-5-(2,2,2-trifluoro-1-hydroxyethyl)-1,6-dihydropyridin-3-yl)piperidin-10-yl)-N-(5-(4-fluorophenoxy)pyridin-2-yl)propanamide] belongs ≤ 10 nM; to `CNCc1cc([C@H]2CN([C@@H](C)C(=O)Nc3cnc(Oc4ccc(F)cc4F)cn3)CCC2(F)F)c[nH]c1=O` [Example 244, (S)-2-((S)-4,4-difluoro-3-(5-((methylamino)methyl)-6-oxo-1,6-dihydropyridin-3-yl)piperidin-1-yl)-N-(5-(2,4-difluorophenoxy)pyrazin-2-yl)propanamide], ≤ 10 nM.
As to `C[C@@H](C(=O)Nc1ccc(Oc2ccc(F)cc2)cn1)N1CCC(F)(F)[C@@H](c2c[nH]c(=O)c(C#N)c2)C1` [Example 251, (S)-2-((S)-3-(5-cyano-6-oxo-1,6-dihydropyridin-3-yl)-4,4-difluoropiperidin-1-yl)-N-(5-(4-fluorophenoxy)pyridin-2-yl)propanamide], the IC50 is ≤ 10 nM.
For `CC(C)n1cc(C2CN([C@@H](C)C(=O)Nc3ccc(F)cn3)CCC2(F)F)ccc1=O` (stereo partly drawn) [Example 194, (2S)-2-(4,4-difluoro-3-(1-isopropyl-6-oxo-1,6-dihydropyridin-3-yl)piperidin-1-yl)-N-(5-fluoropyridin-2-yl)propanamide], the IC50 was in the range of 100 to 3160 nM.
`C[C@@H](C(=O)Nc1ccc(OCC2CC2)cn1)N1CCC(F)(F)[C@@H](c2ccc(=O)[nH]n2)C1` [Example 145, (S)—N-(5-(cyclopropylmethoxy)pyridin-2-yl)-2-((R)-4,4-difluoro-3-(6-oxo-1,6-dihydropyridazin-3-yl)piperidin-1-yl)propanamide] had an IC50 of 10 to 100 nM.
For `C[C@@H](C(=O)Nc1ccc(Oc2ccc(F)cc2F)cn1)N1CCC(F)(F)[C@@H](c2cc[n+]([O-])c(C(N)=O)c2)C1` (single isomer, unassigned) [Example 258], the IC50 is ≤ 10 nM.
For `C[C@@H](C(=O)Nc1ccc(Oc2ncc(F)cc2F)cn1)[C@H]1CCC[C@@H](c2ccc(=O)[nH]c2)C1` [Example 285, (R)-N-(5-((3,5-difluoropyridin-2-yl)oxy)pyridin-2-yl)-2-((1S,3R)-3-(6-oxo-1,6-dihydropyridin-3-yl)cyclohexyl)propanamide] the value was ≤ 10 nM; for `CC(C(=O)Nc1ccc(F)cn1)N1CCC(F)(F)C(c2c[nH]c(=O)c(CS(C)(=O)=O)c2)C1` (centres unmarked) [Example 213, 2-(4,4-difluoro-3-(5-((methylsulfonyl)methyl)-6-oxo-1,6-dihydropyridin-3-yl)piperidin-1-yl)-N-(5-fluoropyridin-2-yl)propanamide], 100 to 3160 nM; for `C[C@@H](C(=O)Nc1ccc(OCC2CC2)nn1)N1CCC(F)(F)[C@@H](c2c[nH]c(=O)c(CN3CCOCC3)c2)C1` (single isomer, unassigned) [Example 225], 100 to 3160 nM.
On to `CC(C(=O)Nc1ccc(Oc2ccc(F)cc2)nn1)N1CCC(F)(F)[C@@H](c2ccc(=O)[nH]c2)C1` (stereo partly drawn) [Example 63, 2-((S)-4,4-difluoro-3-(6-oxo-1,6-dihydropyridin-3-yl)piperidin-1-yl)-N-(6-(4-fluorophenoxy)pyridazin-3-yl)propanamide], for which the IC50 fell in the range of 100 to 3160 nM.

Values taken from patent US11976057B2, “MrgX2 antagonists” (GlaxoSmithKline Intellectual Property Development Limited, priority 2020, dated 2024).
